Reference: US6441053B1, “Inhibitors of glycogen synthase kinase-3 and methods for identifying and using the same” (The Trustees of the University of Pennsylvania, priority 1996, dated 2002)
Where two headings read alike, the source gives them in different places.

Columns and labels:
GSK-3β = GSK-3β (Oryctolagus cuniculus, UniProt G1T8E2); assay: In vitro GSK-3β activity assay (32P incorporation into substrate); format: biochemical, rabbit; settings: for inhibition of phosphorylation of peptide substrate by GSK-3β: 20 mM of the salt in the assay mixture; for GSK-3β phosphorylation of I-2: 20 mM salt, GS-2 and τ protein phosphorylation not inhibited
Protocol: GSK-3β was assayed as described in the following paragraph using 0.5-1.0 units of GSK-3β per assay. […] GSK-3 buffer comprises 20 mM Tris-HCl, 10 mM MgCl2, 5 mM dithiothreitol, and has a pH of 7.5 at 20° C.
The assay mixture comprised 1×GSK-3 buffer, an amount of a kinase enzyme corresponding to 0.5-1.0 unit of activity, a substrate, and 200 μM [γ^32P]-ATP (approximately 500 μCi/μmol). The assay mixture was incubated for a selected period of time following which incorporation of ^32P into the substrate was determined by standard methods.
When I-2 was used as the substrate for […] in the assay, I-2 was present at a concentration of 50 μg/ml. […] The activities of protein kinase A (PKA), mitogen-activating protein kinase (ERK-1/MAP kinase), and casein kinase II (CKII) were assayed under conditions similar to those used to assay […] activity, except that β-mercaptoethanol was included in the PKA assays.

IMPase = IMPase (Homo sapiens, UniProt P29218); settings: Atack et al., 1993; cited from earlier work
[1] = target: T1, inositol monophosphatase (IMPase) (Xenopus laevis, UniProt P29219); assay: IMPase activity in vivo in injected ventral-vegetal blastomeres; settings: 10 nl of 5 mM L-690,330 microinjected into blastomeres
T1 construct: The thirty embryos were then lysed in 300 μl of IMPB; endogenous in cells; host or cells: Xenopus embryos (32-cell stage lysate supernatant; 8- to 16-cell stage embryos injected in vivo)
Protocol: Following dilution, 10 nl of the diluted ^3H-inositol-1-phosphate solution was injected into a single ventral-vegetal blastomere of an embryo which was at the 8- to 16-cell stage. […] The lysate was prepared and applied to Dowex columns as described above.

[2] = target: T1, inositol monophosphatase (IMPase); assay: IMPase activity in lysates prepared from Xenopus embryos; format: biochemical
Protocol: Thirty Xenopus embryos at the 32-cell stage were washed with 1 ml of 50 mM Tris, pH 7.8, 250 mM KCl, 3 mM MgCl2 (IMPB). The thirty embryos were then lysed in 300 μl of IMPB. The lysate was centrifuged for 5 minutes at 20,000×g at 4° C. and the resulting lysate supernatant was recovered. […] Each lysate supernatant mixture was then incubated at room temperature for 5 minutes. One μl of ^3H-inositol-1-phosphate was added to each lysate supernatant mixture, and the incubation was continued for an additional 25 minutes. Each lysate supernatant mixture was then diluted with 1.0 ml of 0.1×MMR, boiled for 5 minutes, and applied to Dowex columns as described (Berridge et al., 1983, Biochem. J. 212:473-482). Inositol was not retained by the Dowex column, and inositol-1-phosphate was eluted by application of 3 ml of 0.1 M formic acid/1.5 M ammonium formate (Berridge et al., 1983, supra). Each assay was repeated two to four times, and similar results were obtained among all replicates.

Xenopus laevis embryo = assay: Dorsalization and development of treated or microinjected Xenopus embryos; format: in vivo
Protocol: Xenopus eggs were fertilized in vitro according to well established protocols (Peng, 1991, in Appendix A of Methods in Cell Biology, Kay et al., eds., Academic Press Inc, San Diego). Microinjection of embryos was performed using embryos at the 1-cell to 32-cell stage, and a volume of 5-10 nl was injected into each embryo.
L-690,330 was dissolved in water to form a solution having a concentration of L-690,330 in the range of 0.1 to 10 mM, and 5 to 10 nl of the L-690,330 solution was injected into the ventral vegetal region of 4, 8, 16, and 32 cell embryos. All four cells of individual 4-cell embryos were injected in separate experiments.

Xenopus embryos = assay: Second axis formation in Xenopus embryos injected with DN-GSK-3 mRNA with or without myo-inositol; format: in vivo, Xenopus laevis
Protocol: mRNA specifying DN-GSK-3 was microinjected into the subequatorial region of a ventral-vegetal blastomere in an embryo at the 16-cell stage. A volume of either 5 nl or 10 nl was microinjected depending upon the concentration of mRNA in the solution being microinjected. The same procedure was used to microinject myo-inositol into an embryo. In most experiments, 10 embryos were harvested at stage 8 to assess the level of DN-GSK-3protein expressed from the injected mRNA, and the level of DN-GSK-3protein in other embryos was assessed at stage 30-35.

Sequence of GSK-3β (G1T8E2 1-432): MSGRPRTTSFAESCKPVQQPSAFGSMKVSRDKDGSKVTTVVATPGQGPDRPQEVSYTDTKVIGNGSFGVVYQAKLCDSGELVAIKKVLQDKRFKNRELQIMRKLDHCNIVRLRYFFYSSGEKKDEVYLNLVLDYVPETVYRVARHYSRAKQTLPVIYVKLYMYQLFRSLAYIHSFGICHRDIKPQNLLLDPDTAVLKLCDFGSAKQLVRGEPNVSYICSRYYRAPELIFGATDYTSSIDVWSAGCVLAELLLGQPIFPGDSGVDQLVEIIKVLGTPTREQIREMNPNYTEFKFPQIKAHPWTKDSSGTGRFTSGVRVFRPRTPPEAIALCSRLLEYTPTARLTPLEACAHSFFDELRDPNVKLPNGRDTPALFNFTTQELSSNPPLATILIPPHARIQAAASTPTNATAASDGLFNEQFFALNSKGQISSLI
T1 sequence (P29219 whole entry): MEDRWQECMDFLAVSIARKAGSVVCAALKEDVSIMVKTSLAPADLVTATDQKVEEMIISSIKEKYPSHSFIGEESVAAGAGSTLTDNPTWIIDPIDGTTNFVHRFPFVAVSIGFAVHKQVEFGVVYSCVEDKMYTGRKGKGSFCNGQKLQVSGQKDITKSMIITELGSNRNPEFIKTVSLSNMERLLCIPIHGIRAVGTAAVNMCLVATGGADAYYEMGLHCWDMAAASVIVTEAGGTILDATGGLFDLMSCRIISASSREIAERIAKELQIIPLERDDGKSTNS
Sequence of IMPase (P29218 whole entry): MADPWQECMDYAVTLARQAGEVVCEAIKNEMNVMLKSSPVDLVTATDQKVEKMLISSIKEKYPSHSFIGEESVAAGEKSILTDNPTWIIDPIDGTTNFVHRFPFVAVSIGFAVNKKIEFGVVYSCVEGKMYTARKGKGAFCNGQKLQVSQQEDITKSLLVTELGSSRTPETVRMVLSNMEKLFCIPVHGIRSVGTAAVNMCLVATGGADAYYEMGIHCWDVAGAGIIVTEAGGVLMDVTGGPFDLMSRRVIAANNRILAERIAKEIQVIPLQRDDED

## [Cl-].[Cs+] [CsCl]
GSK-3β
  inhibition of phosphorylation of peptide substrate by GSK-3β: Little inhibition

## [Cl-].[K+] [KCl]
GSK-3β
  inhibition of phosphorylation of peptide substrate by GSK-3β: Little inhibition
  GSK-3β phosphorylation of I-2: partially inhibited

## CC(Oc1ccc(O)cc1)(P(=O)(O)O)P(=O)(O)O [L-690,330]
IMPase
  potency as inhibitor of IMPase activity relative to lithium: approximately thousand-fold
[1]
  level of inhibition of IMPase activity in vivo compared with 10 nl of 0.3 M LiCl: several times greater
[2]; read-out: concentration giving 50% inhibition of in vitro IMPase activity, lysates prepared from Xenopus embryos
  IC50: ~1 µM
[2]; read-out: concentration of L-690,330 giving approximately 50% inhibition of IMPase activity, FIG. 1 Panel A legend
  IC50: ~1000 µM
Xenopus laevis embryo; 0.3 M LiCl for 6 minutes at 32-cell stage, or injection of 10 nl of 5 mM L-690,330
  dorsalization of Xenopus embryo: did not exhibit dorsalization
Xenopus laevis embryo; highest doses of L-690,330 used
  toxicity in microinjected embryos: mild nonspecific toxicity
Xenopus laevis embryo; microinjected embryos
  effect on development of Xenopus embryos: no discernible effect

## Cl.N [NH4Cl]
GSK-3β
  inhibition of phosphorylation of peptide substrate by GSK-3β: Little inhibition

## [Cl-].[Na+] [NaCl]
GSK-3β
  inhibition of phosphorylation of peptide substrate by GSK-3β: Little inhibition
  GSK-3β phosphorylation of I-2: partially inhibited

## Cn1cc(C2=C(c3cn(CCCSC(=N)N)c4ccccc34)C(=O)NC2=O)c2ccccc21 [Ro31-8220]
GSK-3β; read-out: concentration giving approximately 50% inhibition of GSK-3β activity, assays of Example 1, 0 to 10 μM tested
  IC50: ~0.04 µM

## O[C@H]1[C@H](O)[C@@H](O)[C@H](O)[C@@H](O)[C@H]1O [myo-inositol]
Xenopus embryos; coinjected with DN-GSK-3 mRNA into ventral-vegetal cell of 16-cell embryos
  effect of coinjection on second axis induction by DN-GSK-3: clearly reduced the frequency and the extent of second axis induction
Xenopus embryos; in vivo
  effect on synthesis of DN-GSK-3 protein: did not inhibit
